Results: PMC9945734 (BMC Medicine, 2023)

Tests used:
[1] = In vivo toxicity: body weight, adverse events, H&E of major organs; parameters: species or system Balb/c nude mice; settings: 100 mg/kg intragastric every day
[2] = system: RAW264.7 cells; assay: RANKL-induced osteoclast differentiation, TRAP staining; assay type: cell-based; settings: RANKL 50 ng/mL
Experimental: Three different culture systems were used for the in vitro osteoclast differentiation assay. In the first one, RAW264.7 cells were seeded onto 96-well plates at 1 × 10^3 cells/well and cultured overnight. Cells were then stimulated with recombinant mouse RANKL (Cat #: CR06, Novoprotein, Shanghai, China) at 50 ng/mL in the presence or absence of various concentrations of NTZ (0, 6.25, 12.5, 25 μM). […] Cells were then fixed in 4% paraformaldehyde for 10 min, rinsed with prewarmed deionized water, and stained with tartrate-resistant acid phosphatase (TRAP) using a kit from Sigma-Aldrich (Cat #: A387) to visualize osteoclasts (≥ 3 nuclei/cell). The effect of NTZ on osteoclast differentiation was determined by counting the number of multinucleated cells using the Image J software (Image J 1.48v).

[3] = system: RAW264.7 cells co-cultured with PC-3-KQ cells; assay: Osteoclast differentiation in co-culture of RAW264.7 and PC-3-KQ cells; assay type: cell-based; settings: 1.25, 2.5, 5 μM, 7 days
Experimental: The third in vitro assay involved direct co-culture between RAW264.7 cells and cancer cells. RAW264.7 cells were seeded in 96-well plates at 700 cells per well and allowed to adhere for 12 h. PC-3-KQ cells were added to each well at 300 cells/well, and the culture continued for 12 h. NTZ was added to treat cells for 48 h at various final concentrations (0, 1.25, 2.5, 5 μM). The RAW264.7 medium was mixed with the PC-3 medium at 7:3, and the mixture was used to replace the culture medium every 2 days. After 7 days, the osteoclast differentiation was determined as described above.

[4] = system: MMP9; assay: MMP9 immunohistochemical staining of bone metastases; assay type: in vivo, Balb/c nude mice; settings: KLF5^K369Q-induced bone metastases
Experimental: Immunohistochemical staining was conducted following established procedures. Briefly, 4-μm sections of bone tissues were deparaffinized in xylene and rehydrated in gradient ethanol. The endogenous antigen was retrieved by incubating slides in 10 mM sodium citrate buffer (Cat #: C1010, Solarbio, Beijing, China) overnight in an oven at 65°C. After antigen retrieving, tissue sections were incubated with 3% hydrogen peroxide at room temperature for 10 min to block the endogenous […] activity. They were then incubated in a blocking solution (0.1% albumin bovine V mixed with 10% goat serum) for 40 min, and a solution containing a primary antibody (MMP9, 1:1000, Cat #: ab76003, Abcam, Cambridge, UK; MYBL2, 1:100, Cat #: ab76009, Abcam) for 1.5 h. After rinsing with PBS for 3 times, slides were incubated with the secondary antibody solution for 15 min and then with the DAB solution using the MaxVision II HRP kit (Cat #: KIT-5920, MXB Biotechnologies, Fuzhou, China). Nuclei were counterstained with hematoxylin for 2 min. Slides were then dehydrated with gradient ethanol (75–100%) and xylene and mounted with coverslips using the quick-hardening mounting medium. All slides were scanned using an Aperio VERSA 8 Scanner System (Leica, Wetzlar, Germany) and analyzed using the Image J software (Image J 1.48v, NIH, Bethesda, MD, USA).

[5] = system: MYBL2; assay: MYBL2 expression by qRT-PCR and western blotting; assay type: cell-based, human; settings: PC-3 and DU 145 cells expressing KLF5^K369Q; dose- or time-dependent
Experimental: Total RNA was extracted from cells using the Eastep Super total RNA extraction kit (Cat #: LS1040, Promega, Shanghai, China) and quantified using the NanoDrop One (Thermo Fisher Scientific, Madison, USA). Single-strand cDNA was synthesized from 1 μg of total RNA using the HiScript III All-in-one RT SuperMix kit (Cat #: R333-01, Vazyme, Nanjing, China). For qRT-PCR, the cDNA template was mixed with the SYBR Green reagent in enzyme-free water, and the Qtower3 touch system (Analytik Jena, Jena, Germany) was used for PCR with the following program: initial denaturation at 95°C for 5 min, 40 cycles of 95°C for 30 s, 60°C for 30 s, and 72 °C for 30 s, and a final melting for 15 s. GAPDH was used as an internal control. […].
Cells in 6-well plates were washed with cold PBS and collected in a lysis buffer containing phosphatase and protease inhibitors (Cat #: P1045, Beyotime) to extract proteins. After centrifugation for 10 min at 4°C in a refrigerated centrifuge, the supernatant was collected and mixed with the 4× loading buffer, boiled in a metal heat bath at 100°C for 10 min, and then subjected to 10% SDS-PAGE. Proteins were transferred onto an activated PVDF membrane (0.45 μm pore-size, Cat #: IPVH00010, Millipore, Carrigtwohill, Ireland). […]

CC(=O)Oc1ccccc1C(=O)Nc1ncc([N+](=O)[O-])s1 [Nitazoxanide]
severe adverse events, mortality, histopathological changes in heart, lung, liver, spleen, kidney ([1]; prevention mode): no mice in any NTZ-treated group had severe adverse events, mortality, or noticeable histopathological changes | body weight ([1]; prevention mode, after 5 weeks): did not show a noticeable change | body weights ([1]; therapy mode): not affected | number of TRAP^+ multinucleated cells ([2]; 6.25 and 12.5 μM): significantly decreased | number of TRAP^+ multinucleated cells ([2]; NTZ 0, 6.25, 12.5, 25 μM): decreased the number of TRAP^+ multinucleated cells in a dose-dependent manner | number of TRAP^+ multinucleated cells [3]: significantly decreased | MMP9 protein expression (IHC) [4]: decrease of MMP9 protein expression | expression of MYBL2 (mRNA and protein) [5]: reduced the expression of MYBL2
